The values that follow come from US20250084092A1, “ANNULATED PYRIDAZINE COMPOUND” (Nico Therapeutics, Inc., priority 2021, published 2025).

A value given as a limit tells only on which side of the number the result lay.

Data set [1] relates to IL-1β p17. Description: Rat central nervous system IL-1β production test. It counts as in vivo. To be noted: Wistar rat, oral, cerebrospinal fluid, LPS + BzATP in cisterna magna, read-out: percent inhibition of IL-1β p17 relative to the solvent-treated group. On the procedure:
Under isoflurane anesthesia, 10 to 14 weeks-old male Wistar rats were administered with 12.5 μg/5 μL of LPS (SIGMA, L2880) in the cisterna magna, followed by an oral administration of the test compound 2 hours later. After an additional hour, 50 μg/5 μL of BzATP(2′(3′)-O-(4-benzoylbenzoyl)adenosine 5′-triphosphate triethylammonium salt, SIGMA, B6396) was administered into the cisterna magna, and cerebrospinal fluid was collected after 30 minutes. The cerebrospinal fluid was subjected to Western blotting using an anti-IL-1β antibody (Millipore, AB1832P) to quantify IL-1β p17, and the percent inhibition relative to the solvent-treated group was calculated.
The percent inhibition of IL-1β p17 for Examples 1, 2(1), 3(1) and 124, which are compounds of formula (I), relative to the solvent-treated group is shown in the following table. In the table, Dose refers to the dosage of test compounds; Ex1, Ex2(1), Ex3(1), and Ex124 refer to Example 1, Example 2(1), Example 3(1); and Example 124; and “NT” denotes the unmeasured case.

Data set [2] addresses hERG channel (Homo sapiens, UniProt Q12809). Description: Safety pharmacology test: hERG channel inhibitory effect. The conditions noted are these: human Ether-a-go-go Related Gene channel. Type of data set: biochemical. The procedure: For the safety pharmacology test, evaluation of a human Ether-a-go-go Related Gene (hereinafter referred to as hERG) channel inhibitory effect was carried out. The hERG channel inhibitory effect was evaluated using a modified method described in Combinatorial Chemistry & High Throughput Screening, 12, 1, 78-95 (2009).

Data set [3] has as its target T1, NLRP3 inflammasome (Homo sapiens, UniProt Q96P20).
T1 construct: endogenous in cells; host or cells: THP-1 cells (PMA-differentiated, stimulated with LPS and ATP)
Description: THP-1 IL-1β production inhibition test. The conditions noted are these: PMA-treated THP-1 cells, LPS 50 ng/mL + ATP 5 mM, 2 hours, IL-1β in supernatant by ELISA. It counts as cell-based. The procedure, abridged: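 THP-1 cells differentiated with PMA 50 ng/mL for 2 days, then stimulated with LPS 50 ng/mL and ATP 5 mM (final) for 2 h at 37 °C. Supernatant IL-1β measured by ELISA; IC50 from sigmoid Emax nonlinear regression against log compound concentration.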

Data set [4] deals with 3T3. Description: In vitro phototoxicity test (3T3 NRU). To be noted: In vitro 3T3 NRU Phototoxicity Test, OECD 432, ICH S10. It counts as cell-based. The text has this:
The evaluation of in vitro phototoxicity tests was based on ICH S10: Guidelines for Evaluation of Photosafety of Drugs (Notification No. 0521-1) using a method described in OECD Guidelines for the Testing of Chemicals 432: In vitro 3T3 NRU Phototoxicity Test, 2019).

In data set [5] the test system is TNF-α production in THP-1 cells. Description: TNF-α production inhibition test. It counts as cell-based. To be noted: Homo sapiens; PMA-treated THP-1 cells, LPS 50 ng/mL, 2 hours, TNF-α in supernatant by ELISA. On the procedure:
PMA (phorbol myristate acetate, SIGMA, P1585) was added to THP-1 cells in an amount of 50 ng/mL to culture the cells for 2 days at 37° C. The culture medium was replaced with a serum-free RPMI-1640 medium, and a compound with a known concentration was added thereto to culture the cells at 37° C. for 15 minutes. LPS (Lipopolysaccharide SIMGA, L2880) was added so that each final concentration becomes 50 ng/mL, followed by culturing at 37° C. for 2 hours. The supernatants were collected to measure the concentration of TNF-α by ELISA (DuoSet ELISA human TNF-α, R&D Systems, DY210). The TNF-α concentrations were plotted against log concentrations of test compounds, and an IC50 value was calculated by sigmoid Emax model nonlinear regression analysis.
A general note: An ELISA detects its analyte on a solid surface through an enzyme-linked reagent.

T1 sequence (Q96P20 whole entry): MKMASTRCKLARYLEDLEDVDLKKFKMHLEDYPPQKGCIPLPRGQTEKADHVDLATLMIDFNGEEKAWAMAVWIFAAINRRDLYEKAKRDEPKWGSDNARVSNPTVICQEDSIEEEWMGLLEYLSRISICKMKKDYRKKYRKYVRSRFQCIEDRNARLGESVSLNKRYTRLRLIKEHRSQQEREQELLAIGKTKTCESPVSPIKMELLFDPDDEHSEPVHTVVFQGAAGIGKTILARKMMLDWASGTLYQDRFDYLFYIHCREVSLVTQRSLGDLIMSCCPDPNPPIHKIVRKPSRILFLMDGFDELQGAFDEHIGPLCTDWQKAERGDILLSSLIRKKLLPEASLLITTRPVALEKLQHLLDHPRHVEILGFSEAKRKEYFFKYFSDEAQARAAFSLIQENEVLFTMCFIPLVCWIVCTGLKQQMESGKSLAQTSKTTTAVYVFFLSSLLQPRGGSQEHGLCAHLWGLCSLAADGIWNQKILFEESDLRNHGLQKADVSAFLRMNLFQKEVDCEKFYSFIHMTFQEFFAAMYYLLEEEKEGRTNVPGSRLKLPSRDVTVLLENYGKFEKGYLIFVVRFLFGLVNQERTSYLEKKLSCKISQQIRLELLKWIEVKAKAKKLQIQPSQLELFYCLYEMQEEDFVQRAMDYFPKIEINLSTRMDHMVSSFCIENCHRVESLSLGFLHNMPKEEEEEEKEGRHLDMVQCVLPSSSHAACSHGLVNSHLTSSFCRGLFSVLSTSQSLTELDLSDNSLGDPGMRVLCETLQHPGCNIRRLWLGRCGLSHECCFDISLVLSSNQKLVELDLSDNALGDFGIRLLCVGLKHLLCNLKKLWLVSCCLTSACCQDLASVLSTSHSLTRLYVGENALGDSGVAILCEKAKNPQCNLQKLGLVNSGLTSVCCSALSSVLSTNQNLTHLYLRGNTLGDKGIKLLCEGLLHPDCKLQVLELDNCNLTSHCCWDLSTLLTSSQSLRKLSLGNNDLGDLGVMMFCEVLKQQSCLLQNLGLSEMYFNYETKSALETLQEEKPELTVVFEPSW
Sequence of hERG channel (Q12809 whole entry): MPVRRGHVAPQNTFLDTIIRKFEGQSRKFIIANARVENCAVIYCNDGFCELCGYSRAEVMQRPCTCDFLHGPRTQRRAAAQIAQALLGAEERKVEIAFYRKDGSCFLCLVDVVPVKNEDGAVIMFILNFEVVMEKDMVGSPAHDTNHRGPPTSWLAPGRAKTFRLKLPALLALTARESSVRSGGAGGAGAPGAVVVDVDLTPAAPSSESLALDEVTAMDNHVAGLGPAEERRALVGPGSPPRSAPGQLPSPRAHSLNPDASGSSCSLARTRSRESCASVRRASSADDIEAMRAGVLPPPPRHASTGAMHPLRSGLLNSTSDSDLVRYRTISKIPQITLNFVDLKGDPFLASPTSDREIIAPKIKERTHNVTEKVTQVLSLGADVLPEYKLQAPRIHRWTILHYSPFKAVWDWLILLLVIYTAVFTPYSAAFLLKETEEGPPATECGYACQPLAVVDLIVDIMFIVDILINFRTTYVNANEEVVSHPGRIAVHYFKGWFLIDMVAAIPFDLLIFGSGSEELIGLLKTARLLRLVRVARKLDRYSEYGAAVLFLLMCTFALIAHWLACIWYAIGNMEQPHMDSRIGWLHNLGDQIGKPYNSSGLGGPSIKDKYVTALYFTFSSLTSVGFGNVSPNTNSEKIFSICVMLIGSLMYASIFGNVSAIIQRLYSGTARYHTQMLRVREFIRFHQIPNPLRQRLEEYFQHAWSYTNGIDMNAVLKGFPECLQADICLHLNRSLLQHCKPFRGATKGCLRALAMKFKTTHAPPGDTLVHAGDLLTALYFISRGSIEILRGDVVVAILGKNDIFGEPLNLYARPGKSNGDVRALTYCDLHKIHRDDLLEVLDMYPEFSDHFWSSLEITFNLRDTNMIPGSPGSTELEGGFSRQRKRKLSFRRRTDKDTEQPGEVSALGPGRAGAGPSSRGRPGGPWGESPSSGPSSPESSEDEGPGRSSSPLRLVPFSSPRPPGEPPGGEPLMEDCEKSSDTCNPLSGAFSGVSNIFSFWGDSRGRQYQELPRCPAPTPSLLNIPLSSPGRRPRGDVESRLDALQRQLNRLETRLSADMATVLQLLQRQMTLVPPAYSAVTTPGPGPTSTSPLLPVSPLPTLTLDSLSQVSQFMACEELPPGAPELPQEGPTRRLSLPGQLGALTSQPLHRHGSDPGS

Broadly, the inhibition is the change of the read-out against control, counted positive when it falls. Usually IC50 stands for the midpoint of a concentration-inhibition curve. For the compound `Oc1cc(OC(F)(F)F)ccc1-c1nnc(N[C@@H]2CCCC[C@H]2O)c2c1CCOC2` [Example 3(1), 2-(4-{[(1R,2R)-2-hydroxycyclohexyl]amino}-7,8-dihydro-5H-pyrano[3,4-d]pyridazin-1-yl)-5-(trifluoromethoxy)phenol], in data set [1], the inhibition at 0.3 mg/kg amounted to 75%, the inhibition at 1 mg/kg stood at 82% and the inhibition at 3 mg/kg worked out at 72%. The compound also registered an IC50 in data set [2] of no less than 10 µM. The 50% inhibitory concentration (IC50) in data set [3] stood at 0.0022 µM. The phototoxic effect result in data set [4] was “no phototoxic effect”. The IC50 in data set [5] was no less than 10 µM.

In the case of `Oc1cc(C(F)(F)F)ccc1-c1nnc(N[C@@H]2CCCC[C@H]2O)c2c1CCCC2` [Example 1, 2-(4-{[(1R,2R)-2-hydroxycyclohexyl]amino}-5,6,7,8-tetrahydrophthalazin-1-yl)-5-(trifluoromethyl)phenol], the inhibition at 0.3 mg/kg in data set [1] is -12%. Moreover, the inhibition at 1 mg/kg in data set [1] was 74%. Further, the inhibition at 3 mg/kg in data set [1] was 84%. Besides, the IC50 in data set [2] is no less than 10 µM; in data set [3], 0.01 µM; in data set [5], no less than 10 µM. For the same compound, in data set [4], the phototoxic effect result was “no phototoxic effect”.

Take `CN1CCC[C@@H](Nc2nnc(-c3ccc(OC(F)F)cc3O)c3c2COCC3)C1` [Example 124, 5-(difluoromethoxy)-2-(4-{[(3R)-1-methylpiperidin-3-yl]amino}-7,8-dihydro-5H-pyrano[3,4-d]pyridazin-1-yl)phenol]: in data set [1] (Dose 0.1 mg/kg), the inhibition at 0.1 mg/kg came out at 55%. Also, the inhibition at 0.3 mg/kg in data set [1] stood at 49%. Moreover, the inhibition at 1 mg/kg in data set [1] was determined as 96%. In addition, the concentration for half-maximal inhibition (IC50) in data set [2] is no less than 10 µM; in data set [3], 0.00062 µM; in data set [5], no less than 10 µM. Further, the phototoxic effect result in data set [4] was “no phototoxic effect”.

In the case of `Oc1cc(C(F)(F)F)ccc1-c1nnc(N[C@@H]2CCCC[C@H]2O)c2c1CCOC2` [Example 2(1), 2-(4-{[(1R,2R)-2-hydroxycyclohexyl]amino}-7,8-dihydro-5H-pyrano[3,4-d]pyridazin-1-yl)-5-(trifluoromethyl)phenol], in data set [1], the inhibition at 0.3 mg/kg amounted to 81%, the inhibition at 1 mg/kg turned out to be 75% and the inhibition at 3 mg/kg came to 88%. The same compound showed a half-inhibitory concentration (IC50) in data set [2] of no less than 10 µM. Besides, the IC50 in data set [3] was 0.0034 µM. Besides, the phototoxic effect result in data set [4] is “no phototoxic effect”. Besides, in data set [5], the IC50 is no less than 10 µM.
